Laboratory results reported in PubChem BioAssay (NCI).
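Here, GI50 denotes the concentration required for 50% inhibition of growth. TGI: total growth inhibition.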

Experiments:
Assay in all cases: NCI tumour cell line growth inhibition, 384-well format
NCI-H522 lung = tested on: NCI-H522 lung
NCI-H460 NSCLC = tested on: NCI-H460 NSCLC
MDA-MB-231 breast = tested on: MDA-MB-231 breast
SR leukemia = tested on: SR leukemia
SNB-75 CNS = tested on: SNB-75 CNS
PC-3 prostate = tested on: PC-3 prostate
MOLT-4 leukemia = tested on: MOLT-4 leukemia
MALME-3M melanoma = tested on: MALME-3M melanoma
OVCAR-4 ovarian = tested on: OVCAR-4 ovarian
SF-268 CNS = tested on: SF-268 CNS
SK-MEL-2 melanoma = tested on: SK-MEL-2 melanoma
SN12C renal = tested on: SN12C renal
HT29 colon = tested on: HT29 colon
HCT-15 colon = tested on: HCT-15 colon
U251 glioblastoma = tested on: U251 glioblastoma
SK-MEL-28 melanoma = tested on: SK-MEL-28 melanoma
HOP-62 NSCLC = tested on: HOP-62 NSCLC
UACC-62 melanoma = tested on: UACC-62 melanoma
IGROV1 ovarian = tested on: IGROV1 ovarian
TK-10 renal = tested on: TK-10 renal
OVCAR-5 ovarian = tested on: OVCAR-5 ovarian
HOP-92 NSCLC = tested on: HOP-92 NSCLC
MCF7 breast = tested on: MCF7 breast
KM12 colon = tested on: KM12 colon
NCI-H322M lung = tested on: NCI-H322M lung
DU-145 prostate = tested on: DU-145 prostate
NCI-H23 lung = tested on: NCI-H23 lung
OVCAR-3 ovarian = tested on: OVCAR-3 ovarian
OVCAR-8 ovarian = tested on: OVCAR-8 ovarian
CCRF-CEM leukemia = tested on: CCRF-CEM leukemia
HL-60(TB) leukemia = tested on: HL-60(TB) leukemia
HS 578T breast = tested on: HS 578T breast
HCC-2998 colon = tested on: HCC-2998 colon
M14 melanoma = tested on: M14 melanoma
BT-549 breast = tested on: BT-549 breast
SNB-19 CNS = tested on: SNB-19 CNS
EKVX NSCLC = tested on: EKVX NSCLC
RPMI-8226 leukemia = tested on: RPMI-8226 leukemia
MDA-MB-435 melanoma = tested on: MDA-MB-435 melanoma
RXF 393 renal = tested on: RXF 393 renal
NCI/ADR-RES ovarian = tested on: NCI/ADR-RES ovarian
SK-MEL-5 melanoma = tested on: SK-MEL-5 melanoma
UACC-257 melanoma = tested on: UACC-257 melanoma
MDA-MB-468 breast = tested on: MDA-MB-468 breast
T-47D breast = tested on: T-47D breast
A498 renal = tested on: A498 renal
ACHN renal = tested on: ACHN renal
SK-OV-3 ovarian = tested on: SK-OV-3 ovarian
COLO 205 colon = tested on: COLO 205 colon
CAKI-1 renal = tested on: CAKI-1 renal
NCI-H226 lung = tested on: NCI-H226 lung
SW-620 colon = tested on: SW-620 colon
SF-539 CNS = tested on: SF-539 CNS

SMILES: COc1ccc(N(C)c2nc(C)nc3ccccc23)cc1
- GI50 (NCI-H522 lung): < 10 nM
- TGI (NCI-H522 lung): < 10 nM
- GI50 (NCI-H460 NSCLC): < 10 nM
- TGI (NCI-H460 NSCLC): < 10 nM
- GI50 (MDA-MB-231 breast): < 10 nM
- TGI (MDA-MB-231 breast): 23900 nM
- GI50 (SR leukemia): < 10 nM
- TGI (SR leukemia): < 10 nM
- GI50 (SNB-75 CNS): < 10 nM
- TGI (SNB-75 CNS): < 10 nM
- GI50 (PC-3 prostate): < 10 nM
- TGI (PC-3 prostate): < 10 nM
- GI50 (MOLT-4 leukemia): < 10 nM
- TGI (MOLT-4 leukemia): < 10 nM
- GI50 (MALME-3M melanoma): < 10 nM
- TGI (MALME-3M melanoma): < 10 nM
- GI50 (OVCAR-4 ovarian): < 10 nM
- TGI (OVCAR-4 ovarian): 2080 nM
- GI50 (SF-268 CNS): < 10 nM
- TGI (SF-268 CNS): < 10 nM
- GI50 (SK-MEL-2 melanoma): < 10 nM
- TGI (SK-MEL-2 melanoma): < 10 nM
- GI50 (SN12C renal): < 10 nM
- TGI (SN12C renal): 46000 nM
- GI50 (HT29 colon): < 10 nM
- TGI (HT29 colon): 13000 nM
- GI50 (HCT-15 colon): < 10 nM
- TGI (HCT-15 colon): < 10 nM
- GI50 (U251 glioblastoma): < 10 nM
- TGI (U251 glioblastoma): < 10 nM
- GI50 (SK-MEL-28 melanoma): < 10 nM
- TGI (SK-MEL-28 melanoma): < 10 nM
- GI50 (HOP-62 NSCLC): < 10 nM
- TGI (HOP-62 NSCLC): 5640 nM
- GI50 (UACC-62 melanoma): < 10 nM
- TGI (UACC-62 melanoma): < 10 nM
- GI50 (IGROV1 ovarian): < 10 nM
- TGI (IGROV1 ovarian): > 100000 nM
- GI50 (TK-10 renal): < 10 nM
- TGI (TK-10 renal): 90300 nM
- GI50 (OVCAR-5 ovarian): < 10 nM
- TGI (OVCAR-5 ovarian): > 100000 nM
- GI50 (HOP-92 NSCLC): < 10 nM
- TGI (HOP-92 NSCLC): 13.1 nM
- GI50 (MCF7 breast): < 10 nM
- TGI (MCF7 breast): 184 nM
- GI50 (KM12 colon): < 10 nM
- TGI (KM12 colon): 38400 nM
- GI50 (NCI-H322M lung): < 10 nM
- TGI (NCI-H322M lung): > 100000 nM
- GI50 (DU-145 prostate): < 10 nM
- TGI (DU-145 prostate): 32.8 nM
- GI50 (NCI-H23 lung): < 10 nM
- TGI (NCI-H23 lung): < 10 nM
- GI50 (OVCAR-3 ovarian): < 10 nM
- TGI (OVCAR-3 ovarian): < 10 nM
- GI50 (OVCAR-8 ovarian): < 10 nM
- TGI (OVCAR-8 ovarian): < 10 nM
- GI50 (CCRF-CEM leukemia): < 10 nM
- TGI (CCRF-CEM leukemia): < 10 nM
- GI50 (HL-60(TB) leukemia): < 10 nM
- TGI (HL-60(TB) leukemia): < 10 nM
- GI50 (HS 578T breast): < 10 nM
- TGI (HS 578T breast): < 10 nM
- GI50 (HCC-2998 colon): < 10 nM
- TGI (HCC-2998 colon): < 10 nM
- GI50 (M14 melanoma): < 10 nM
- TGI (M14 melanoma): < 10 nM
- GI50 (BT-549 breast): < 10 nM
- TGI (BT-549 breast): < 10 nM
- GI50 (SNB-19 CNS): < 10 nM
- TGI (SNB-19 CNS): < 10 nM
- GI50 (EKVX NSCLC): < 10 nM
- TGI (EKVX NSCLC): 25100 nM
- GI50 (RPMI-8226 leukemia): < 10 nM
- TGI (RPMI-8226 leukemia): < 10 nM
- GI50 (MDA-MB-435 melanoma): < 10 nM
- TGI (MDA-MB-435 melanoma): < 10 nM
- GI50 (RXF 393 renal): < 10 nM
- TGI (RXF 393 renal): < 10 nM
- GI50 (NCI/ADR-RES ovarian): < 10 nM
- TGI (NCI/ADR-RES ovarian): < 10 nM
- GI50 (SK-MEL-5 melanoma): < 10 nM
- TGI (SK-MEL-5 melanoma): < 10 nM
- GI50 (UACC-257 melanoma): < 10 nM
- TGI (UACC-257 melanoma): 75500 nM
- GI50 (MDA-MB-468 breast): < 10 nM
- TGI (MDA-MB-468 breast): < 10 nM
- GI50 (T-47D breast): < 10 nM
- TGI (T-47D breast): 55700 nM
- GI50 (A498 renal): < 10 nM
- TGI (A498 renal): 35400 nM
- GI50 (ACHN renal): < 10 nM
- TGI (ACHN renal): 11400 nM
- GI50 (SK-OV-3 ovarian): < 10 nM
- TGI (SK-OV-3 ovarian): < 10 nM
- GI50 (COLO 205 colon): < 10 nM
- TGI (COLO 205 colon): < 10 nM
- GI50 (CAKI-1 renal): < 10 nM
- TGI (CAKI-1 renal): 288 nM
- GI50 (NCI-H226 lung): < 10 nM
- TGI (NCI-H226 lung): < 10 nM
- GI50 (SW-620 colon): < 10 nM
- TGI (SW-620 colon): > 100000 nM
- GI50 (SF-539 CNS): < 10 nM
- TGI (SF-539 CNS): < 10 nM
